Results from patent US20200216416A1, “QUINOLINE COMPOUNDS AS INHIBITORS OF TAM AND MET KINASES” (Array BioPharma Inc., priority 2019, published 2020).
pIC50: −log10 of the molar value. Read-outs that look alike come from different tables or passages of the source.

Tests used:
human MET kinase D1228H = molecular target: T1, human MET kinase D1228H (Homo sapiens, UniProt P08581, D1228H); test: c-Met Enzyme Assay, D1228H mutant; type: binding; conditions: averaged IC50; D1228H 2 nM; 60-minute incubation at 22° C.; read-out: D1228 H IC50
T1 construct: GST-tagged recombinant human MET kinase domain; purchased Signal Chem
In short: (§1)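 LanthaScreen Eu TR-FRET binding: GST-tagged recombinant MET kinase domain incubated with compound, 50 nM Alexa-Fluor Tracer 236 and 2 nM Eu-anti-GST in 25 mM HEPES pH 7.4, 10 mM MgCl2, 1 mM DTT, 2% DMSO, 60 min at 22 °C. Ratiometric emission gave percent of control; IC50 from 4-parameter fit at 50 POC.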

human MET kinase F1200I = molecular target: T2, human MET kinase F1200I (Homo sapiens, UniProt P08581, F1200I); test: c-Met Enzyme Assay, F1200I mutant; type: binding; conditions: averaged IC50; F1200I 2 nM; 60-minute incubation at 22° C.
T2 construct: GST-tagged recombinant human MET kinase domain; purchased Signal Chem
In short: as §1

MDR1 (P-gp) = molecular target: T3, MDR1 (P-gp) (Homo sapiens, UniProt P08183); test: MDR1 LLC-PK1 permeability assay; type: in vitro ADME; conditions: pig, MDR1 transfected LLC-PK1 cells; for Papp at 2 h, 1 μM: permeability coefficient (Papp)
T3 construct: expressed in transfected cells; host or cells: LLC-PK1
In short: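 MDR1-transfected LLC-PK1 monolayers dosed at 1 μM test article (1% organic) in A→B and B→A directions, in triplicate, for 2 h at 37 °C; lucifer yellow monitored monolayer integrity. Compound measured by LC-MS/MS against labetalol internal standard; Papp averaged per replicate, efflux ratio = Papp(B−A)/Papp(A−B).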

[1] = LLC-PK1, Papp(B−A)/Papp(A−B), test article 1 μM, 2 hours, 37° C., read-out: Efflux ratio
[2] = LLC-PK1, efflux ratio = Papp(B-A)/Papp(A-B), read-out: MDR1 Pe Ratio

T3 sequence (P08183 whole entry): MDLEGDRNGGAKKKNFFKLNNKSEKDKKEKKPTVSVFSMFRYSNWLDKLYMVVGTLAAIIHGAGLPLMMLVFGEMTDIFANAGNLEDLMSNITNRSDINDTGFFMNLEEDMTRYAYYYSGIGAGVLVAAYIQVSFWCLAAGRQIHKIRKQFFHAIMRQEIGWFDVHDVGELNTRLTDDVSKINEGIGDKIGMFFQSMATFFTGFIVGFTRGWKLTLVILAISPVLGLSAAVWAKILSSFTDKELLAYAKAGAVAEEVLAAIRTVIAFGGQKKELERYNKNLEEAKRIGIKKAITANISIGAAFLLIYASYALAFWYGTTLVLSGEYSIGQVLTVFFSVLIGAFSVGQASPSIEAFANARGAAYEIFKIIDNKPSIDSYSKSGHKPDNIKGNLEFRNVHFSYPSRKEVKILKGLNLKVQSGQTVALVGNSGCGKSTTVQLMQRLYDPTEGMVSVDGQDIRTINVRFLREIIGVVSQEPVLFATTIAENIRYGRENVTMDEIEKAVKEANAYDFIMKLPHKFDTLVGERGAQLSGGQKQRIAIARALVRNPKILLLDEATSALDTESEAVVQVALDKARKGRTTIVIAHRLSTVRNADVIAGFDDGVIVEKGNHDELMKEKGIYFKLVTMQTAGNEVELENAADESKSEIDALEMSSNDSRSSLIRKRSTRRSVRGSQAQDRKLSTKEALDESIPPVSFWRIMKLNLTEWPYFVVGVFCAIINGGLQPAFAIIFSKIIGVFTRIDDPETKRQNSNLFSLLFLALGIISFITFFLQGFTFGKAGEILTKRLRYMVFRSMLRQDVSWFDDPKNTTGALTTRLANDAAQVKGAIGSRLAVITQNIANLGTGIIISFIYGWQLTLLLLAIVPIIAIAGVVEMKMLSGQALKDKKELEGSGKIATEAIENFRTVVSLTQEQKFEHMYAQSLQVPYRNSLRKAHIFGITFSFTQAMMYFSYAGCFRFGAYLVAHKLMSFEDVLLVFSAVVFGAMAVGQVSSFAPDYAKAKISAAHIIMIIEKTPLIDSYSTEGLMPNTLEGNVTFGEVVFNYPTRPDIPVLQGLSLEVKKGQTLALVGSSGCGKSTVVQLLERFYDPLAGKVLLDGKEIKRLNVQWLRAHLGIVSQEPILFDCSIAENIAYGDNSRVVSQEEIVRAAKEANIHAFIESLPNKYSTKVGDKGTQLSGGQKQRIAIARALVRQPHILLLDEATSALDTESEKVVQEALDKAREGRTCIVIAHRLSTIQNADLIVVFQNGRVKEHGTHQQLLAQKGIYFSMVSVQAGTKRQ
T2 sequence (P08581 1078-1345 F1200I limits assumed): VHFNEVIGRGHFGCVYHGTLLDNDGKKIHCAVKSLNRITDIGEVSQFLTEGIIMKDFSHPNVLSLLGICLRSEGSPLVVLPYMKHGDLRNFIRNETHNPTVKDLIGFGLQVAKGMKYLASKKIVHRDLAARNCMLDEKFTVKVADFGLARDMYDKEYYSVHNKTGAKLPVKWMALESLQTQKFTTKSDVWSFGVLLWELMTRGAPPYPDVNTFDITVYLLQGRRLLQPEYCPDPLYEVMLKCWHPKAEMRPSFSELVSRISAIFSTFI
T1 sequence (P08581 1078-1345 D1228H): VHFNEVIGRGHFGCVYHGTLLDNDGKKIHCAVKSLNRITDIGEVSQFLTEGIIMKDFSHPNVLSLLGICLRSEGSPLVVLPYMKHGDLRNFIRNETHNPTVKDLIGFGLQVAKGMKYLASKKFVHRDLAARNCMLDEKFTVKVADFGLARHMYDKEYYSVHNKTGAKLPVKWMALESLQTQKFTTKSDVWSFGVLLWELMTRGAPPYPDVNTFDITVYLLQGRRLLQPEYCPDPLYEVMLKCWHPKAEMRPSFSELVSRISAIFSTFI

Compound	pIC50 (human MET kinase D1228H)	pIC50 (human MET kinase F1200I)	efflux ratio at 2 h, 1 μM (MDR1 (P-gp); [1])	efflux ratio at 2 h, 1 μM (MDR1 (P-gp); [2])	Papp at 2 h, 1 μM (MDR1 (P-gp)) [×10⁻⁶ cm/s]
CCOc1ccc2nccc(Oc3ccc(NC(=O)c4cn(C(C)C)cc(-c5ccc(F)cc5)c4=O)nc3)c2c1 [Example 51, N-(5-((6-ethoxyquinolin-4-yl)oxy)pyridin-2-yl)-5-(4-fluorophenyl)-1-isopropyl-4-oxo-1,4-dihydropyridine-3-carboxamide]	7.23	7.46	3.5	2	3
CCOc1ccc2c(Oc3ccc(NC(=O)c4cn(C(C)C)cc(-c5ccc(F)cc5)c4=O)nc3)ccnc2c1 [Example 52, N-(5-((7-ethoxyquinolin-4-yl)oxy)pyridin-2-yl)-5-(4-fluorophenyl)-1-isopropyl-4-oxo-1,4-dihydropyridine-3-carboxamide]	7.84	7.70	3.5	1.8	2
COc1cc2nc(C)cc(Oc3ccc(NC(=O)c4cn(C(C)C)cc(-c5ccc(F)cc5)c4=O)nc3)c2cc1OC [Example 53, N-(5-((6,7-dimethoxy-2-methylquinolin-4-yl)oxy)pyridin-2-yl)-5-(4-fluorophenyl)-1-isopropyl-4-oxo-1,4-dihydropyridine-3-carboxamide]	5.37	5.43		3.4	5
COc1cc2nccc(Oc3cnc(NC(=O)c4cn(C(C)C)cc(-c5ccc(F)cc5)c4=O)nc3)c2cc1OC [Example 54, N-(5-((6,7-dimethoxyquinolin-4-yl)oxy)pyrimidin-2-yl)-5-(4-fluorophenyl)-1-isopropyl-4-oxo-1,4-dihydropyridine-3-carboxamide]	8.42	8.17		114	12
COc1cc2nccc(Oc3cnc(NC(=O)c4cn(C(C)C)c(C)c(-c5ccc(F)cc5)c4=O)nc3)c2cc1OC [Example 55, N-(5-((6,7-dimethoxyquinolin-4-yl)oxy)pyrimidin-2-yl)-5-(4-fluorophenyl)-1-isopropyl-6-methyl-4-oxo-1,4-dihydropyridine-3-carboxamide]	8.66	8.47		144	8

Now from value to compound:

pIC50 (human MET kinase D1228H)	pIC50 (human MET kinase F1200I)	efflux ratio at 2 h, 1 μM (MDR1 (P-gp); [1])	efflux ratio at 2 h, 1 μM (MDR1 (P-gp); [2])	Papp at 2 h, 1 μM (MDR1 (P-gp)) [×10⁻⁶ cm/s]	Compound
8.72	8.30		20	< 1	COc1cc2c(Oc3ccc(NC(=O)c4cn(C(C)C)cc(-c5ccc(F)cc5)c4=O)nc3)ccnc2cc1OCCCN1CCOCC1 [Example 56, 5-(4-fluorophenyl)-1-isopropyl-N-(5-((6-methoxy-7-(3-morpholinopropoxy)quinolin-4-yl)oxy)pyridin-2-yl)-4-oxo-1,4-dihydropyridine-3-carboxamide]
6.27	6.46	3.5	2.5	15	COc1cc2ncc(C#N)c(Oc3ccc(NC(=O)c4cn(C(C)C)cc(-c5ccc(F)cc5)c4=O)nc3)c2cc1OC [Example 57, N-(5-((3-cyano-6,7-dimethoxyquinolin-4-yl)oxy)pyridin-2-yl)-5-(4-fluorophenyl)-1-isopropyl-4-oxo-1,4-dihydropyridine-3-carboxamide]
8.46	8.46	3.5	3	10	COc1cc2nccc(Oc3ccc(NC(=O)c4cn(C(C)C)cc(-c5ccc(F)cc5)c4=O)cn3)c2cc1OC [Example 58, N-(6-((6,7-dimethoxyquinolin-4-yl)oxy)pyridin-3-yl)-5-(4-fluorophenyl)-1-isopropyl-4-oxo-1,4-dihydropyridine-3-carboxamide]
